Test results as given in ChEMBL document CHEMBL1127999, “Diphenylborinic acid is a strong inhibitor of serine proteases” (Bioorg Med Chem Lett, 1994).

Experiments:
Serine protease 1 = target: T1, Serine protease 1 (Bos taurus, UniProt P00760)
T1 sequence (P00760 whole entry): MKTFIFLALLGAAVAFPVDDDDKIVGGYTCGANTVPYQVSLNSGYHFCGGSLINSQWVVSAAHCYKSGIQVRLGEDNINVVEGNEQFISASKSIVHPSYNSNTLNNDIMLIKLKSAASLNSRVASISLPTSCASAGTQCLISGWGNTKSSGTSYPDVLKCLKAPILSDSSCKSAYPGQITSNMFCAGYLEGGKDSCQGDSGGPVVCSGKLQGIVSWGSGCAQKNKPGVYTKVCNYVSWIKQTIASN
Description: Compound was tested for the inhibition of trypsin

Chymotrypsinogen A = Chymotrypsinogen A (Bos taurus, UniProt P00766)
Description: Compound was tested for the inhibition of chymotrypsin

Description for physchem: Dissociation constant of compound was determined

Row | Ki (Serine protease 1) | pKa | pKa (physchem) | Ki (Chymotrypsinogen A) | Structure (SMILES)
1 | 10.2 mM | 8.85 |  |  | OB(O)c1ccccc1 [PHENYLBORONIC ACID]
2 |  |  | 8.1 | 0.03 mM | CB(O)c1ccccc1 [PHENYL METHYL BORINIC ACID]
